Values quoted from earlier work in patent US20220305028A1, “METHOD FOR PREPARING A LIPOSOMAL COMPOSITION COMPRISING LATANOPROST, AND THE PHARMACOLOGICALLY ACTIVE LIPOSOMAL COMPOSITION FOR OPHTHALMOTHERAPY PREPARED BY THIS METHOD” (CONSORTIUM "UKRINDUSTRY", priority 2021, published 2022).

Conditions: aqueous ophthalmic drops

SMILES: CC(C)OC(=O)CCC/C=C\C[C@@H]1[C@@H](CC[C@@H](O)CCc2ccccc2)[C@H](O)C[C@@H]1O [latanoprost, Latanoprost]
- penetration of the latanoprost from the drops through a corneal epithelium: not more than 5 % of the administered amount
